How the values were obtained:
MEIS1 mRNA expression = MEIS1 mRNA expression assay (Quantigene Singleplex) in MOLM14 cells; format: cell-based, human; conditions: Homo sapiens, MOLM-14, 48 h, 48 hours incubation
Method in brief: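 MOLM14 cells, 3,750/well, exposed to increasing compound concentrations for 48 h. MEIS1 mRNA measured by QuantiGene Singleplex branched-DNA hybridization (lysis 45 min, hybridization 18–22 h, both 55 °C), normalized to RPL28. IC50 fitted to background-corrected fold change versus DMSO.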

[1] = biological target: T1, menin/MLL (terbium chelate-labeled menin, FITC-MBM1 peptide) (Homo sapiens, UniProt O00255, T541A); test: Menin/MLL homogenous time-resolved fluorescence (HTRF) assay; format: binding; conditions: 30 min incubation
T1 construct: Menin (a.a 1-610-6xhis tag, 2.3 mg/mL in 20 mM Hepes)
T1 sequence (O00255 with tags, fused parts or gaps T541A): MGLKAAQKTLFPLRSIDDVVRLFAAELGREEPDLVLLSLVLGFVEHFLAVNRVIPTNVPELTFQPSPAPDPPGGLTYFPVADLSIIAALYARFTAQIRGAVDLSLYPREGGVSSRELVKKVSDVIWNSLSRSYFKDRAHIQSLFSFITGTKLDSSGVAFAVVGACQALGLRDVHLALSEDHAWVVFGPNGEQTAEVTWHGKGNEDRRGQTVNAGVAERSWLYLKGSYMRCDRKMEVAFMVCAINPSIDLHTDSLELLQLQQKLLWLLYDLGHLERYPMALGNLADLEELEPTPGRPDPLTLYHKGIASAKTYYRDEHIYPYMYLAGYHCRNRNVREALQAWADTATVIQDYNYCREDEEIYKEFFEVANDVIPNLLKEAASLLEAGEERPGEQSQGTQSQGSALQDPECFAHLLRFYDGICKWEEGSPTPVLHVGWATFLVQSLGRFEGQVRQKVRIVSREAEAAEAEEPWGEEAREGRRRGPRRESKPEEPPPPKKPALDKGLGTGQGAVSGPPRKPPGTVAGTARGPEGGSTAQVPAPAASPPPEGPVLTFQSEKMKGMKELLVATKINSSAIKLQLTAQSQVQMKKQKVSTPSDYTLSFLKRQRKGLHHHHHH
Method in brief: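 Terbium-labeled menin (a.a. 1-610, His-tagged; […]) pre-incubated 30 min with compound, then 75 nM FITC-MBM1 peptide added for 15 min at ambient temperature in Tris pH 7.5 buffer, 0.5% DMSO. HTRF 520/490 nm ratio read; IC50 from 11-point four-fold titrations, typically from 10 μM.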

| SMILES | IC50 (MEIS1 mRNA expression) | IC50 [1] |
| --- | --- | --- |
| Cc1cncc2c1c(CC1CN(C3CCCNC(=O)C3)C1)cn2-c1ccc(F)cc1C(=O)N(C)C(C)C (centres unmarked) [Compound 290] | 170 nM | 0.393 nM |
| Cc1cncc2c1c(CC1CN(C3CCCN(C)C(=O)C3)C1)cn2-c1ccc(F)cc1C(=O)N(C)C(C)C (centres unmarked) [Compound 291] | 468 nM | 0.594 nM |
| CC(=O)N1CCCC(N2CC(Cc3cn(-c4ccc(F)cc4C(=O)N(C)C(C)C)c4cncc(C)c34)C2)CC1 (centres unmarked) [Compound 295] | 338 nM | 0.171 nM |
| CC(=O)N1CCC2(CCC2N2CC(Cc3cn(-c4ccc(F)cc4C(=O)N(C)C(C)C)c4cncc(C)c34)C2)CC1 (centres unmarked) [Compound 296] | 549 nM | 0.339 nM |
| CC(=O)N1CCCCC1C1(CN2CC(Cc3cn(-c4ccc(F)cc4C(=O)N(C)C(C)C)c4cncc(C)c34)C2)CC1 (centres unmarked) [Compound 297] | > 1000 nM | 0.477 nM |
| CC(=O)N1CCC(C2(CN3CC(Cc4cn(-c5ccc(F)cc5C(=O)N(C)C(C)C)c5cncc(C)c45)C3)CC2)CC1 [Compound 298] | 178 nM | 0.083 nM |
| CC(=O)N1CC2CC(CN3CC(Cc4cn(-c5ccc(F)cc5C(=O)N(C)C(C)C)c5cncc(C)c45)C3)CC(C2)C1 (centres unmarked) [Compound 300] | 55 nM | 0.116 nM |
| CC(=O)N1[C@H](C)CC(N2CC(Cc3cn(-c4ccc(F)cc4C(=O)N(C)C(C)C)c4cncc(C)c34)C2)C[C@@H]1C (some centres unmarked) [Compound 301] | 144 nM | 0.191 nM |
| CC(=O)N1[C@@H](C)CC(N2CC(Cc3cn(-c4ccc(F)cc4C(=O)N(C)C(C)C)c4cncc(C)c34)C2)C[C@@H]1C (some centres unmarked) [Compound 302] | 78 nM | 0.05 nM |
| CC(=O)N1CCC2(CCCC(N3CC(Cc4cn(-c5ccc(F)cc5C(=O)N(C)C(C)C)c5cncc(C)c45)C3)C2)C1 (centres unmarked) [Compound 303] | ~77 nM | 0.179 nM |
| CC(=O)N1CC2CC1C2C(C)N1CC(Cc2cn(-c3ccc(F)cc3C(=O)N(C)C(C)C)c3cncc(C)c23)C1 (centres unmarked) [Compound 304] | > 1000 nM | 2.8 nM |
| CC(=O)N1CC2C(CN3CC(Cc4cn(-c5ccc(F)cc5C(=O)N(C)C(C)C)c5cncc(C)c45)C3)C2C1 (centres unmarked) [Compound 305] | ~297 nM | 0.146 nM |
| CC(=O)N1CC2CCC(N3CC(Cc4cn(-c5ccc(F)cc5C(=O)N(C)C(C)C)c5cncc(C)c45)C3)C2C1 (centres unmarked) [Compound 306] | 159 nM | 0.468 nM |
| Cc1cncc2c1c(CC1CN(CC3(O)CCOCC3)C1)cn2-c1ccc(F)cc1C(=O)N(C)C(C)C [Compound 307] | 48 nM | 0.044 nM |
| Cc1noc(CN2CC(Cc3cn(-c4ccc(F)cc4C(=O)N(C)C(C)C)c4cncc(C)c34)C2)n1 [Compound 308] | > 1000 nM | 60.2 nM |
| CC(=O)N1CCC(CN2CC[C@@H](Cc3cn(-c4ccc(F)cc4C(=O)N4CCC45CCC5)c4cncc(C)c34)C2)CC1 [Compound 310] | 351 nM | 0.119 nM |
| CC(=O)N1CCC(CN2CC[C@@H](Cc3cn(-c4ccc(F)cc4C(=O)N4CCCCC4C)c4cncc(C)c34)C2)CC1 (some centres unmarked) [Compound 317] | 65 nM | 0.291 nM |
| COC1CC(C)N(C(=O)c2cc(F)ccc2-n2cc(C[C@@H]3CCN(CC4CCN(C(C)=O)CC4)C3)c3c(C)cncc32)C1 (some centres unmarked) [Compound 318] | 1380 nM | 0.22 nM |
| CC(=O)N1CCC(CN2CC[C@@H](Cc3cn(-c4ccc(F)cc4C(=O)N4C[C@@H](O)C[C@H]4C)c4cncc(C)c34)C2)CC1 [Compound 327] | ~616 nM | 0.819 nM |
| Cc1cncc2c1c(C[C@@H]1CCN(CC3CCN(C(=O)C(C)C)CC3)C1)cn2-c1ccc(F)cc1C(=O)N(CCO)C(C)C [Compound 329] | 13 nM | 0.152 nM |
| Cc1cncc2c1c(C[C@@H]1CCN(CC3CCN(C(=O)C(C)C)CC3)C1)cn2-c1ccc(F)cc1C(=O)N(C[C@H](C)O)C(C)C [Compound 330] | 10 nM | 0.13 nM |
| Cc1cncc2c1c(C[C@@H]1CCN(CC3CCN(C(=O)C(C)C)CC3)C1)cn2-c1ccc(F)cc1C(=O)N(C[C@@H](C)O)C(C)C [Compound 331] | 29 nM | 0.117 nM |

Source: patent US20230250096A1, “SUBSTITUTED PHENYL-1H-PYRROLO[2,3-c] PYRIDINE DERIVATIVES” (Janssen Pharmaceutica NV, priority 2021, published 2023)
